Measurements: patent publication EP1247803A2, “Indolinone compounds suitable for modulation of protein kinases” (Sugen, Inc., priority 1996, dated 1998)

Tests used:
EGFR = target: T1, EGFR (Homo sapiens, UniProt P00533); assay: EGFR ELISA assay (in vitro kinase activity, EGFR captured from A431 cell lysate); type: biochemical; set-up: concentration or dose not given beside the values
T1 construct: Add 7 ug A431 cell lysate per well (EGFR source); endogenous in cells; host or cells: A431
Procedure, shortened: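 EGFR from A431 lysate was captured on anti-EGFR antibody-coated plates and preincubated with compounds for 30 min. Autophosphorylation ran 5 min with 3 uM ATP and 5 mM MnCl2 (final), stopped with 20 mM EDTA. Phosphotyrosine was detected by anti-pTyr ELISA with ABTS/H2O2, read at 410 nm.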

MET = MET biochemical kinase assay; set-up: species or system human; concentration or dose not given beside the values
Procedure, shortened: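 Lysate-derived MET, or chimeric receptors, is immobilised on plates through an antibody to the human MET cytoplasmic region. Compounds are added along with kinase buffer supplying ATP and divalent metal ions, and receptor autophosphorylation is quantified by anti-phosphotyrosine ELISA.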

T1 sequence (P00533 25-1210): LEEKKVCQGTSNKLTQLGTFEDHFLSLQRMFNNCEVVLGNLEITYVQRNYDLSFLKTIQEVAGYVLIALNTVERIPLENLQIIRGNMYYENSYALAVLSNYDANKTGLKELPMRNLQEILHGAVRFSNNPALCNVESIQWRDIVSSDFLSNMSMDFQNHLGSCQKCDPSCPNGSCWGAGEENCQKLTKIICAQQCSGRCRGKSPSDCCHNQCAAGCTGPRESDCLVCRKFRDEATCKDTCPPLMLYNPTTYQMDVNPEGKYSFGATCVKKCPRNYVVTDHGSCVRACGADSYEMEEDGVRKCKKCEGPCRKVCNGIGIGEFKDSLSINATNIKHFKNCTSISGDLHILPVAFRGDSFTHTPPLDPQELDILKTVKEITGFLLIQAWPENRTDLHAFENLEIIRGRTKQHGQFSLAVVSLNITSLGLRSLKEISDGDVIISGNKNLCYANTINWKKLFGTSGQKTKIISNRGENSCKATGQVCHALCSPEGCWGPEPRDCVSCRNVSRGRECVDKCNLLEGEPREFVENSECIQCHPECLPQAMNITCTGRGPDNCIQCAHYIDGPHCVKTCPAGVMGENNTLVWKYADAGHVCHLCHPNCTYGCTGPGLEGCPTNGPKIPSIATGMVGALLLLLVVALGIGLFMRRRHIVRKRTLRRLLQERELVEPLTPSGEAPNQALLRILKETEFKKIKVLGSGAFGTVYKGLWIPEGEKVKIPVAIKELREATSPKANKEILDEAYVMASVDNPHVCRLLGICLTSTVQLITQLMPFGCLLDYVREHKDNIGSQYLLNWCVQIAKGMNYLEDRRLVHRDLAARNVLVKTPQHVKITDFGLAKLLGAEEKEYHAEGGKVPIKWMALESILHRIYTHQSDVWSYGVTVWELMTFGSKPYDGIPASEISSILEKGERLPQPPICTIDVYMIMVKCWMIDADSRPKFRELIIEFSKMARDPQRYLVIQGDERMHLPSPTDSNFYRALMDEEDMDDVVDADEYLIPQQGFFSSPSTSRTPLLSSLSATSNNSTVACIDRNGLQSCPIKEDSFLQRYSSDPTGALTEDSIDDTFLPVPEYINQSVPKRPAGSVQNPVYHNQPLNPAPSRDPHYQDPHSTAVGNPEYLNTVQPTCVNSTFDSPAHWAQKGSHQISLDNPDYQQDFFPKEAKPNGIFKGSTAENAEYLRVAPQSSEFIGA

With `O=C1Nc2c(Br)cc(Br)cc2C1=Cc1ccc(Cl)s1` [10721/A07] the “Biochem EGFR %Inhibition” value (EGFR) was 35.2% and the “Met Kinase % Inhibition” value (MET) was 29.7%.

With `Cc1cc(C)c(C=C2C(=O)Nc3c(Br)cc(Br)cc32)[nH]1` [10721/A08] the “Biochem EGFR %Inhibition” value (EGFR) was 24.0% and the “Met Kinase % Inhibition” value (MET) was 29.9%.

`CC(C)(C)c1cc(C=C2C(=O)Nc3c(Br)cc(Br)cc32)ccc1O` [10721/A09] was tested, and the “Biochem EGFR %Inhibition” value (EGFR) was 28.0% and the “Met Kinase % Inhibition” value (MET) was 23.0%.

In the case of `CC(C)(C)c1cc(C=C2C(=O)Nc3c(Br)cc(Br)cc32)cc(Br)c1O` [10721/A10], the “Biochem EGFR %Inhibition” value (EGFR) was 31.1% and the “Met Kinase % Inhibition” value (MET) was 68.9%.

In the case of `CC(C)(C)c1cc(C=C2C(=O)Nc3c(Br)cc(Br)cc32)cc(C(C)(C)C)c1O` [10721/A11], the “Biochem EGFR %Inhibition” value (EGFR) was 24.6% and the “Met Kinase % Inhibition” value (MET) was 23.9%.

With `O=C1Nc2ccc(I)cc2C1=Cc1cc2c([nH]1)CCCC2` [10721/B05] the “Biochem EGFR %Inhibition” value (EGFR) was 76.8% and the “Met Kinase % Inhibition” value (MET) was 70.8%.

With `Cc1cc(C)c(C=C2C(=O)Nc3ccc(I)cc32)[nH]1` [10721/B08] the “Biochem EGFR %Inhibition” value (EGFR) was 64.0% and the “Met Kinase % Inhibition” value (MET) was 64.5%.

With `CC(C)(C)c1cc(C=C2C(=O)Nc3ccc(I)cc32)ccc1O` [10721/B09] the “Biochem EGFR %Inhibition” value (EGFR) was 38.9% and the “Met Kinase % Inhibition” value (MET) was 28.3%.

`CC(C)(C)c1cc(C=C2C(=O)Nc3ccc(I)cc32)cc(Br)c1O` [10721/B10] was tested, and the “Biochem EGFR %Inhibition” value (EGFR) was 42.9% and the “Met Kinase % Inhibition” value (MET) was 30.4%.

`CC(C)(C)c1cc(C=C2C(=O)Nc3ccc(I)cc32)cc(C(C)(C)C)c1O` [10721/B11] was tested, and the “Biochem EGFR %Inhibition” value (EGFR) was 34.6% and the “Met Kinase % Inhibition” value (MET) was 6.7%.

`Cc1c(Br)ccc2c1C(=Cc1nc3ccccc3n1C)C(=O)N2` [10721/C02] was tested, and the “Biochem EGFR %Inhibition” value (EGFR) was 68.3% and the “Met Kinase % Inhibition” value (MET) was 59.2%.

With `Cc1c(Br)ccc2c1C(=Cc1nn(C)cc1Cl)C(=O)N2` [10721/C03] the “Biochem EGFR %Inhibition” value (EGFR) was 64.6% and the “Met Kinase % Inhibition” value (MET) was 6.2%.

`Cc1cc(C=C2C(=O)Nc3ccc(Br)c(C)c32)sc1C` [10721/C04] was tested, and the “Biochem EGFR %Inhibition” value (EGFR) was 77.7% and the “Met Kinase % Inhibition” value (MET) was 88.7%.

For `Cc1c(Br)ccc2c1C(=Cc1cc3c([nH]1)CCCC3)C(=O)N2` [10721/C05], the “Biochem EGFR %Inhibition” value (EGFR) was 68.1% and the “Met Kinase % Inhibition” value (MET) was 48.7%.

`Cc1c(Br)ccc2c1C(=Cc1cc([N+](=O)[O-])cc(CCl)c1O)C(=O)N2` [10721/C06] was tested, and the “Biochem EGFR %Inhibition” value (EGFR) was 80.2% and the “Met Kinase % Inhibition” value (MET) was 56.4%.

With `Cc1c(Br)ccc2c1C(=Cc1ccc(Cl)s1)C(=O)N2` [10721/C07] the “Biochem EGFR %Inhibition” value (EGFR) was 24.6% and the “Met Kinase % Inhibition” value (MET) was 25.7%.

For `Cc1cc(C)c(C=C2C(=O)Nc3ccc(Br)c(C)c32)[nH]1` [10721/C08], the “Biochem EGFR %Inhibition” value (EGFR) was 38.3% and the “Met Kinase % Inhibition” value (MET) was 24.8%.

`Cc1c(Br)ccc2c1C(=Cc1ccc(O)c(C(C)(C)C)c1)C(=O)N2` [10721/C09] was tested, and the “Biochem EGFR %Inhibition” value (EGFR) was 39.8% and the “Met Kinase % Inhibition” value (MET) was -4.7%.

`Cc1c(Br)ccc2c1C(=Cc1cc(Br)c(O)c(C(C)(C)C)c1)C(=O)N2` [10721/C10] was tested, and the “Biochem EGFR %Inhibition” value (EGFR) was 17.4% and the “Met Kinase % Inhibition” value (MET) was 44.6%.

With `Cc1c(Br)ccc2c1C(=Cc1cc(C(C)(C)C)c(O)c(C(C)(C)C)c1)C(=O)N2` [10721/C11] the “Biochem EGFR %Inhibition” value (EGFR) was 14.1% and the “Met Kinase % Inhibition” value (MET) was 3.7%.

With `CNS(=O)(=O)c1ccc2c(c1)C(=Cc1nc3ccccc3n1C)C(=O)N2` [10721/D02] the “Biochem EGFR %Inhibition” value (EGFR) was 21.5% and the “Met Kinase % Inhibition” value (MET) was 22.5%.

With `CNS(=O)(=O)c1ccc2c(c1)C(=Cc1nn(C)cc1Cl)C(=O)N2` [10721/D03] the “Biochem EGFR %Inhibition” value (EGFR) was 11.6% and the “Met Kinase % Inhibition” value (MET) was 19.5%.

With `CNS(=O)(=O)c1ccc2c(c1)C(=Cc1cc(C)c(C)s1)C(=O)N2` [10721/D04] the “Biochem EGFR %Inhibition” value (EGFR) was 5.0% and the “Met Kinase % Inhibition” value (MET) was 35.3%.

For `CNS(=O)(=O)c1ccc2c(c1)C(=Cc1cc3c([nH]1)CCCC3)C(=O)N2` [10721/D05], the “Biochem EGFR %Inhibition” value (EGFR) was 47.0% and the “Met Kinase % Inhibition” value (MET) was 91.9%.

In the case of `CNS(=O)(=O)c1ccc2c(c1)C(=Cc1cc([N+](=O)[O-])cc(CCl)c1O)C(=O)N2` [10721/D06], the “Biochem EGFR %Inhibition” value (EGFR) was 44.5% and the “Met Kinase % Inhibition” value (MET) was 9.0%.

In the case of `CNS(=O)(=O)c1ccc2c(c1)C(=Cc1ccc(Cl)s1)C(=O)N2` [10721/D07], the “Biochem EGFR %Inhibition” value (EGFR) was 23.0% and the “Met Kinase % Inhibition” value (MET) was -6.8%.

`CNS(=O)(=O)c1ccc2c(c1)C(=Cc1[nH]c(C)cc1C)C(=O)N2` [10721/D08] was tested, and the “Biochem EGFR %Inhibition” value (EGFR) was 31.7% and the “Met Kinase % Inhibition” value (MET) was 45.3%.

For `CNS(=O)(=O)c1ccc2c(c1)C(=Cc1ccc(O)c(C(C)(C)C)c1)C(=O)N2` [10721/D09], the “Biochem EGFR %Inhibition” value (EGFR) was 15.3% and the “Met Kinase % Inhibition” value (MET) was -4.9%.
